Results published in patent US7816088B2, “Identification, isolation and elimination of cancer stem cells” (The Board of Trustees of the Leland Stanford Junior …, priority 2003, dated 2010).
Entries after “also recorded” stand apart in the source; their conditions may differ. Counter-ions that a name gives are not always drawn.

Experiments:
β-catenin = β-catenin FACS analysis of CML patient progenitors; type: in vivo, human; details: CML patients pre versus post-imatinib
Description: β-catenin FACS Analysis. FACS-separated hematopoietic stem cells, common myeloid progenitors, granulocyte/macrophage progenitors, and megakaryocyte/erythroid progenitors were fixed with 0.8% paraformaldehyde and made permeable with 0.3% saponin. Cells were stained overnight with a fluorescein isothiocyanate (FITC)-conjugated antibody to β-catenin (Transduction Laboratories) or IgG1 isotype control-FITC antibody, washed, and analyzed by FACS.

[1] = system: CD34+Lin− stem and progenitor cells; assay: FACS analysis of hematopoietic stem and progenitor profiles of CML patient samples before and after imatinib; type: in vivo, human
Description: Bone Marrow and Peripheral Blood Samples. Fresh human bone marrow was obtained with informed consent from healthy volunteers (AllCells, Berkeley, Calif.) as well as from allogeneic bone marrow donors (Department of Bone Marrow Transplantation, Stanford School of Medicine, Stanford, Calif.). Cytokine (G-CSF) mobilized peripheral blood samples were also obtained following apheresis from allogeneic donors.
Hematopoietic Stem Cell and Myeloid Progenitor Flow Cytometric Analysis and Cell Sorting. Mononuclear fractions were extracted following Ficoll density centrifugation according to standard methods and analyzed fresh or subsequent to rapid thawing of samples previously frozen in 90% FCS and 10% DMSO in liquid nitrogen. Prior to FACS analysis and sorting, hematopoietic stem cells (HSCs) were stained with lineage marker specific phycoerythrin (PE)-Cy5-conjugated antibodies including CD2 RPA-2.10; CD11b, ICRF44; CD20, 2H7; CD56, B159; GPA, GA-R2 (Becton Dickinson-PharMingen, San Diego), CD3, S4.1; CD4, S3.5; CD7, CD7-6B7; CD8, 3B5; CD10, 5-1B4, CD14, TUK4; CD19, SJ25-C1 (Caltag, South San Francisco, Calif.) and APC-conjugated anti-CD34, 84G12 (Becton Dickinson-Pharmingen), biotinylated anti-CD38, HIT2 (Caltag), FITC-conjugated anti-CD90 and PE conjugated anti-Flk2. […]
Myeloid progenitors were stained with the same lineage marker specific PE-Cy5-conjugated antibodies, APC-conjugated anti-CD34, 8G12 (Becton Dickinson-PharMingen) and biotinylated anti-CD38, HIT2 (Caltag) in addition to PE-conjugated anti-IL-3Rα, 9F5 (Becton Dickinson-ParMingen) and FITC-conjugated anti-CD45RA, MEM56 (Caltag) followed by staining with Streptavidin-Texas Red to visualize CD38-BIO stained cells and resuspension in propidium iodide to exclude dead cells. Unstained samples and isotype controls were included to assess background fluorescence. After staining, cells were analyzed and sorted using a modified FACS Vantage (Becton Dickinson Immunocytometry Systems, Mountain View, Calif.) equipped with a 599 nm dye laser and a 488 nm argon laser. […]

For Cc1ccc(NC(=O)c2ccc(CN3CCN(C)CC3)cc2)cc1Nc1nccc(-c2cccnc2)n1 [imatinib, imatinib mesylate], the “β-catenin levels (MFI) in myeloid progenitors” value (β-catenin) was “normal”, the “number of CD34+Lin− cells” value ([1]; CML patients post-imatinib / responding to imatinib, bone marrow and peripheral blood) was “dramatic decline; also recorded: significant decrease” and the “number of CD34+CD38− and CD34+CD38+ cells” value ([1]; imatinib responsive patients) was “decreased”. The “proportion of individual myeloid progenitors” value ([1]; imatinib responsive patients) was “reverted to normal”.
